# Source: ChEMBL document CHEMBL5038570, “Discovery of Novel Pyrrolo[2,3-d]pyrimidine-based Derivatives as Potent JAK/HDAC Dual Inhibitors for the Treatment of Refractory Solid Tumors” (J Med Chem, 2022)
# How the values were obtained:
# [1] = target: Tyrosine-protein kinase JAK2 (Homo sapiens, UniProt O60674); assay: Inhibition of JAK2 (unknown origin) preincubated for 60 mins followed by reagent A addition and measured after 60 mins in presence of ATP by using microplate reader method
# [2] = target: T1, Protein deacetylase HDAC6 (Homo sapiens, UniProt Q9UBN7); assay: Inhibition of HDAC6 (unknown origin) incubated for 60 mins by microplate reader analysis
# T1 sequence (Q9UBN7 whole entry): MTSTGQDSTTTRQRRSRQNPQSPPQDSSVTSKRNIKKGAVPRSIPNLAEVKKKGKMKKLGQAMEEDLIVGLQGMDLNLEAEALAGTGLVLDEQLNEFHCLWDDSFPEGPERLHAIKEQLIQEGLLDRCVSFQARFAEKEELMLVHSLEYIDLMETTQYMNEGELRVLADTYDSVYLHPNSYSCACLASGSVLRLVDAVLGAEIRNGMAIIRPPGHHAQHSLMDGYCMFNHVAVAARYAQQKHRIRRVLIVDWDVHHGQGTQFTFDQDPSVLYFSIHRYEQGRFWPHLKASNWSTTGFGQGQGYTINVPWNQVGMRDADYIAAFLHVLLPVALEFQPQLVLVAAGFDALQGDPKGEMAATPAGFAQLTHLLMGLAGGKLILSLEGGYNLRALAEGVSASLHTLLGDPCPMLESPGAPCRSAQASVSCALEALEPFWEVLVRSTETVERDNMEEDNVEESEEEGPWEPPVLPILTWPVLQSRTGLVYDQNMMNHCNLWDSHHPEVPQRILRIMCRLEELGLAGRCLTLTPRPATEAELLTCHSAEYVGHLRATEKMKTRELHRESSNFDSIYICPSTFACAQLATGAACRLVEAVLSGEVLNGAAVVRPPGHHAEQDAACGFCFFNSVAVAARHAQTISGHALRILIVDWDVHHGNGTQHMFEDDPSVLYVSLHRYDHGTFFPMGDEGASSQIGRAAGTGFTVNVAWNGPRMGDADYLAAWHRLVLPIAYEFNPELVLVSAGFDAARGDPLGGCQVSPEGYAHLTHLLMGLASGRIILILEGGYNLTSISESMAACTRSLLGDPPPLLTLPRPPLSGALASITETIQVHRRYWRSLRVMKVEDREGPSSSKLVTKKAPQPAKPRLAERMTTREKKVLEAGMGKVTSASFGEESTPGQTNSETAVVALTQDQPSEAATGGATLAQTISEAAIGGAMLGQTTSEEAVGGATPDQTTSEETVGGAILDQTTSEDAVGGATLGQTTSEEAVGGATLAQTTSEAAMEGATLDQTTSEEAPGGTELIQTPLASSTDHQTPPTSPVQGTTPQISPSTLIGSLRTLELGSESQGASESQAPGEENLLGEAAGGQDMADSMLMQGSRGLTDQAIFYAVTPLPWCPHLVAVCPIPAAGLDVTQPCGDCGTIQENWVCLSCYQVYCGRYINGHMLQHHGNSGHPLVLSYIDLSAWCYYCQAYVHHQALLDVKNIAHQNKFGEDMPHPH
# [3] = target: T2, Protein deacetylase HDAC6 (Homo sapiens) (UniProt Q9UBN7); assay: Inhibition of HDAC6 (unknown origin) at 10 nM incubated for 60 mins by microplate reader analysis relative to control
# T2 sequence (whole entry): T1 sequence (Q9UBN7 whole entry)
# [4] = target: T3, Tyrosine-protein kinase JAK3 (Homo sapiens, UniProt P52333); assay: Inhibition of JAK3 (unknown origin) preincubated for 60 mins followed by reagent A addition and measured after 60 mins in presence of ATP by using microplate reader method
# T3 sequence (P52333 whole entry): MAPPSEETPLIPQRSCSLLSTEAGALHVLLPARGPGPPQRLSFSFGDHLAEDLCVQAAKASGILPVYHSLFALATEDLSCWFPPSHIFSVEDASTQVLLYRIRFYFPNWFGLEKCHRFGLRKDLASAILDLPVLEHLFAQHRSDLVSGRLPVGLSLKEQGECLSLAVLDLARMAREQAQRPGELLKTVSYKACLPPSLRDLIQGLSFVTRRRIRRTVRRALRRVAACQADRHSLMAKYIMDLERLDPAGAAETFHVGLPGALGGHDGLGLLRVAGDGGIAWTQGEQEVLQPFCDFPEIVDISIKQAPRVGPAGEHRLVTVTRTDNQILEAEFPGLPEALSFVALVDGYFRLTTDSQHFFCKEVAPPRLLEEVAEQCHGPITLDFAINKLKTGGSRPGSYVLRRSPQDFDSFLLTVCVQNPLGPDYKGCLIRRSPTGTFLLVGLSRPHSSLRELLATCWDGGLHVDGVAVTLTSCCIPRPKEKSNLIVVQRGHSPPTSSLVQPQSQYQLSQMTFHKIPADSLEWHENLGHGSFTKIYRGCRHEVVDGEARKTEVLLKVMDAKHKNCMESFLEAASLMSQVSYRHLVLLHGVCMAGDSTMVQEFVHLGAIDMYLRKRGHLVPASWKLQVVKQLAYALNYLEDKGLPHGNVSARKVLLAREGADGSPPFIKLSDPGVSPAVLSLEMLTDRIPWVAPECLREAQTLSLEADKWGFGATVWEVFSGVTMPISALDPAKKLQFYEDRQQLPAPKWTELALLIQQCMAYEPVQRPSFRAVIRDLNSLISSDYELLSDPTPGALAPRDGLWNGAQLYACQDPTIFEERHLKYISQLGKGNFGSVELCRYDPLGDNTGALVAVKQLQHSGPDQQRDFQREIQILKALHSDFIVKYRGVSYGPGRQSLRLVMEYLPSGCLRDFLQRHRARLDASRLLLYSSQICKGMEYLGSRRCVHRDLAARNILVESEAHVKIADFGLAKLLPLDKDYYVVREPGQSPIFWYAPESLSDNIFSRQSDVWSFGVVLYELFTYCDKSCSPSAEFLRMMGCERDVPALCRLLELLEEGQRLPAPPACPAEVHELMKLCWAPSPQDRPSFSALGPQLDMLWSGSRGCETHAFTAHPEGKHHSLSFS
# Histone deacetylase 1 = Histone deacetylase 1 (Homo sapiens, UniProt Q13547); assay: Inhibition of HDAC1 (unknown origin) incubated for 60 mins using microplate reader analysis
# [5] = target: Tyrosine-protein kinase JAK1 (Homo sapiens, UniProt P23458); assay: Inhibition of JAK1 (unknown origin) preincubated for 60 mins followed by reagent A addition and measured after 60 mins in presence of ATP by using microplate reader method
# [6] = target: Non-receptor tyrosine-protein kinase TYK2 (Homo sapiens, UniProt P29597); assay: Inhibition of TYK2 (unknown origin) incubated for 40 min in presence of ATP by microplate reader analysis
# MDA-MB-468 = assay: cells; type: functional, cell-based; conditions: Homo sapiens, MDA-MB-468, 72 h
# BT-549 = assay: cells; type: functional, cell-based; conditions: Homo sapiens, BT-549, 72 h
# MDA-MB-231 = assay: cells; type: functional, cell-based; conditions: Homo sapiens, MDA-MB-231, 72 h
# CAL-51 = assay: cells; type: functional, cell-based; conditions: Homo sapiens, CAL-51, 72 h
# 4T1 = assay: cells; type: functional, cell-based; conditions: Mus musculus, 4T1, 72 h
# Chain of Tyrosine-protein kinase JAK2 (O60674 whole entry): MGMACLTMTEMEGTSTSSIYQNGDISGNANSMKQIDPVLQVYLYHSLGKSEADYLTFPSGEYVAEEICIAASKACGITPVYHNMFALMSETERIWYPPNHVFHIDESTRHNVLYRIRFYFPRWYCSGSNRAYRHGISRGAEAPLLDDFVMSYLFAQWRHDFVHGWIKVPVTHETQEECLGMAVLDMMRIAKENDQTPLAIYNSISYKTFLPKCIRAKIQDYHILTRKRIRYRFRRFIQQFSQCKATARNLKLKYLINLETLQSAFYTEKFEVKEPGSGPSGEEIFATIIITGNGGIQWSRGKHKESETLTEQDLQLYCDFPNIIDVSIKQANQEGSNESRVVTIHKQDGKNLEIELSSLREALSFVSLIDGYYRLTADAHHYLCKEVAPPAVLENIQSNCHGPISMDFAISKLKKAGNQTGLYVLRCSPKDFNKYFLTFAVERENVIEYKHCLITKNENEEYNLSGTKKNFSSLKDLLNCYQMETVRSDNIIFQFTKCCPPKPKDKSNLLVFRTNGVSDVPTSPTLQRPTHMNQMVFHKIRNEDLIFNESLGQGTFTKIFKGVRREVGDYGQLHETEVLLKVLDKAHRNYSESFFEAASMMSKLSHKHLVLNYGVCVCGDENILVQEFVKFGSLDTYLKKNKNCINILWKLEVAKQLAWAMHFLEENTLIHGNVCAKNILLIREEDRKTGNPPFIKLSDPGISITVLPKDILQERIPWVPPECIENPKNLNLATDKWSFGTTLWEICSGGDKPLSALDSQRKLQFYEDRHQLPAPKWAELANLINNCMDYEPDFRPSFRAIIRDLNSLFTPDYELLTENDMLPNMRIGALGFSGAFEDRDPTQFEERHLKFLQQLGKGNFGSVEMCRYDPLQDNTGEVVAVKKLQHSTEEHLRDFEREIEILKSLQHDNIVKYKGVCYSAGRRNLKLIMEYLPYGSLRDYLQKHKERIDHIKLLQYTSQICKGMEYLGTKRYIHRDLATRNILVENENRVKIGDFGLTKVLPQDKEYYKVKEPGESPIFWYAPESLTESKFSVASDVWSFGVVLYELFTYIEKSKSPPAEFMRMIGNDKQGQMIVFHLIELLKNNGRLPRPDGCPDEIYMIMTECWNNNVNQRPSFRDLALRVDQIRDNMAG
# Chain of Histone deacetylase 1 (Q13547 whole entry): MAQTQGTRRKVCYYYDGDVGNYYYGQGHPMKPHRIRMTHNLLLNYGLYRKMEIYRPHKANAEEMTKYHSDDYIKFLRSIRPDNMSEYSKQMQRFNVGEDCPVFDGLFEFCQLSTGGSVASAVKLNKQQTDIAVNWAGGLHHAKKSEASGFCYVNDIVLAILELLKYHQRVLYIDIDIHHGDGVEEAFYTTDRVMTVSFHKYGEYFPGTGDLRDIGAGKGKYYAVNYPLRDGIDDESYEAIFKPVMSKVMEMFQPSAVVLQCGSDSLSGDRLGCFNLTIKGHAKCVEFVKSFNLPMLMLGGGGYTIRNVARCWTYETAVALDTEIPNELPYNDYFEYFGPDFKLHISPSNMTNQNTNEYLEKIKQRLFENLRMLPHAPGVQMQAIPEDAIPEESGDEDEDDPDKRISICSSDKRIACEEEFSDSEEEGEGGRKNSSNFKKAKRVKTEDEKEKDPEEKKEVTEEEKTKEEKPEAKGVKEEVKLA
# Chain of Tyrosine-protein kinase JAK1 (P23458 whole entry): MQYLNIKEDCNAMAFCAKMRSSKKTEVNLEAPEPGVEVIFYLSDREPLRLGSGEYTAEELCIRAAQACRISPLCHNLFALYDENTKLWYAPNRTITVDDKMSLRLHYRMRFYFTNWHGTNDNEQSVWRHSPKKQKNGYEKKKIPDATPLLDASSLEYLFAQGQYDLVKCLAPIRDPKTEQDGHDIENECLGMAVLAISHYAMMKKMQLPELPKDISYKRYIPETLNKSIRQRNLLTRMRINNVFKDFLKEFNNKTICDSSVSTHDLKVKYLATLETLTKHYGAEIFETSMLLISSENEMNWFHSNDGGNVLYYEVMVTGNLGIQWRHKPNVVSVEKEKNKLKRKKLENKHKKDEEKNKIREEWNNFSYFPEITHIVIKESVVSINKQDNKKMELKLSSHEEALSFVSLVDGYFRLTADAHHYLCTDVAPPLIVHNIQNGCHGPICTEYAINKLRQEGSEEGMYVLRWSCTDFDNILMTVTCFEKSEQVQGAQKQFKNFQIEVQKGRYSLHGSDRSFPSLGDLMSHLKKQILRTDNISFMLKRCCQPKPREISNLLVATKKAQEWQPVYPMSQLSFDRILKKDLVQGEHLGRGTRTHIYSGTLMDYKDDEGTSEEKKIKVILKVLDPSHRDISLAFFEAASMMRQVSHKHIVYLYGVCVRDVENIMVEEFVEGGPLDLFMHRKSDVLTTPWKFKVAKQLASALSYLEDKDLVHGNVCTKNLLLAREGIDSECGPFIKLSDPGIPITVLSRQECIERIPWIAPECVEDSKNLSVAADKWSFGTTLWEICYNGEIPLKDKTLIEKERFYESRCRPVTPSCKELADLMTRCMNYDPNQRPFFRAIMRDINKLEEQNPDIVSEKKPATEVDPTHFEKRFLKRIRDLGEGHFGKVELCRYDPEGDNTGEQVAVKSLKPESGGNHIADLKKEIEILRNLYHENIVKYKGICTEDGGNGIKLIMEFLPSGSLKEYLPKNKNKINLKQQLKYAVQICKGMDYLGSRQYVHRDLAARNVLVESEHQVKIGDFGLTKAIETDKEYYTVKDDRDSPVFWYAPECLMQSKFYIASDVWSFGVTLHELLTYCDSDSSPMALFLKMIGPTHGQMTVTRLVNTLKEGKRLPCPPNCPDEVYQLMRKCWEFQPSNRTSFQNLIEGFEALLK
# Chain of Non-receptor tyrosine-protein kinase TYK2 (P29597 whole entry): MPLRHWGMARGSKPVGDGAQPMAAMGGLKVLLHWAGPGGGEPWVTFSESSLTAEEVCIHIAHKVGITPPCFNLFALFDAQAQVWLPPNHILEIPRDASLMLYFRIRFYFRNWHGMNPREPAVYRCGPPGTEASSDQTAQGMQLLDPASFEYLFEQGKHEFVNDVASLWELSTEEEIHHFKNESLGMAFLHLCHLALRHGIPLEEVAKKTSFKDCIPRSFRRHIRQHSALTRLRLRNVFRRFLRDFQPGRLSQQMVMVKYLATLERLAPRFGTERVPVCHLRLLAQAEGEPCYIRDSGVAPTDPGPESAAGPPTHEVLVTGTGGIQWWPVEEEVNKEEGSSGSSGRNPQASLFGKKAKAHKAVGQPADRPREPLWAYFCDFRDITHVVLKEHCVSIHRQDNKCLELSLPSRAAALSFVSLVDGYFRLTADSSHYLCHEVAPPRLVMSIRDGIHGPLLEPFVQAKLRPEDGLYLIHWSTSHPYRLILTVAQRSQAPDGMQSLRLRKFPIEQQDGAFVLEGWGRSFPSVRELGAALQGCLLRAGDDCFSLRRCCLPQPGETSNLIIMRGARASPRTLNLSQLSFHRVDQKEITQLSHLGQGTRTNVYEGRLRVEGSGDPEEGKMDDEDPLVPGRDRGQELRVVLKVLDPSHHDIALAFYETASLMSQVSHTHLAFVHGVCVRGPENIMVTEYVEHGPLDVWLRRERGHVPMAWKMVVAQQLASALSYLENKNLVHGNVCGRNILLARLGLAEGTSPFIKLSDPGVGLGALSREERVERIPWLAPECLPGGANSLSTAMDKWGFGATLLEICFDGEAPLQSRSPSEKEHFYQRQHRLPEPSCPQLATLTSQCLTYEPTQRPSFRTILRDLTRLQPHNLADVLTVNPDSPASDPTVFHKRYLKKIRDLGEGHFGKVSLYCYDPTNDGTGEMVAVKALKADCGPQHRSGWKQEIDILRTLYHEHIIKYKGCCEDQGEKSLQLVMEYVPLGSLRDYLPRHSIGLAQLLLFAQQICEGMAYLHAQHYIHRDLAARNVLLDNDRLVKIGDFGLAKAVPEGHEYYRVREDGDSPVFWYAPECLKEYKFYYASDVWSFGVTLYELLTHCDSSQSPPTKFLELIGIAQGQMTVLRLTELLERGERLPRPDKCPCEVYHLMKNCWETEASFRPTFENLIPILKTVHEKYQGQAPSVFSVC
SMILES,IC50 [1] [µM],IC50 [2] [µM],inhibition [3] [%],also measured
O=C(CCCCCCn1cc(Nc2ncc3ccn(CC4CCCCC4)c3n2)cn1)NO,0.069,0.088,,
O=C(CCCCCCn1cc(Nc2ncc3ccn(-c4ccc(Br)cc4)c3n2)cn1)NO,0.0548,0.0202,,
COc1ccc(Cn2ccc3cnc(Nc4cnn(CCCCCCC(=O)NO)c4)nc32)cc1,> 0.1,,40,
O=C(CCCCCn1cc(Nc2ncc3ccn(Cc4ccc(F)cc4)c3n2)cn1)NO,> 0.1,,46,
O=C(CCCCCn1cc(Nc2ncc3ccn(Cc4cccc(F)c4)c3n2)cn1)NO,0.0041,0.0137,,IC50 [4]: 0.0126 µM; IC50 (Histone deacetylase 1): 0.173 µM; IC50 [5]: 0.0087 µM
O=C(CCCCCn1cc(Nc2ncc3ccn(Cc4ccccc4)c3n2)cn1)NO,0.033,0.0138,,
O=C(CCCCCCn1cc(Nc2ncc3ccn(Cc4ccc(Cl)cc4)c3n2)cn1)NO,> 0.1,,39,
O=C(CCCCCCn1cc(Nc2ncc3ccn(CC4CC4)c3n2)cn1)NO,> 0.1,0.016,,
O=C(CCCCCCn1cc(Nc2ncc3ccn(Cc4ccccc4Cl)c3n2)cn1)NO,0.0308,0.0415,,
O=C(CCCCCCn1cc(Nc2nc(Nc3cccc(Cl)c3)c3ccccc3n2)cn1)NO,9.4,,,
O=C(CCCCCn1cc(Nc2ncc3ccn(-c4ccc(Br)cc4)c3n2)cn1)NO,0.0175,0.0113,,
O=C(CCCCCCn1cc(Nc2ncc3ccn(Cc4cccc(Cl)c4)c3n2)cn1)NO,0.0398,0.0368,,
O=C(CCCCCn1cc(Nc2ncc3ccn(CCc4ccccc4)c3n2)cn1)NO,> 0.1,,41,
COc1cccc(Cn2ccc3cnc(Nc4cnn(CCCCCCC(=O)NO)c4)nc32)c1,0.209,0.0288,,
O=C(CCCCCCn1cc(Nc2ncc3ccn(-c4ccc(Cl)cc4)c3n2)cn1)NO,0.0482,0.0334,,
O=C(CCCCCCn1cc(Nc2ncc3ccn(C4CCCC4)c3n2)cn1)NO,> 0.1,0.022,,
COc1ccc(Cn2ccc3cnc(Nc4cnn(CCCCCC(=O)NO)c4)nc32)cc1,> 0.1,,46,

SMILES,IC50 [1] [µM],IC50 [2] [µM],inhibition [3] [%],also measured
CS(=O)(=O)c1ccc(-n2ccc3cnc(Nc4cnn(CCCCCCC(=O)NO)c4)nc32)cc1,0.0157,0.0059,,
O=C(CCCCCCn1cc(Nc2ncc3ccn(Cc4ccc(F)cc4)c3n2)cn1)NO,> 0.1,,62,
O=C(CCCCCn1cc(Nc2ncc3ccn(Cc4cccc(Cl)c4)c3n2)cn1)NO,0.0177,0.0344,,
O=C(CCCCCn1cc(Nc2ncc3ccn(Cc4ccc(Cl)cc4)c3n2)cn1)NO,> 0.1,,38,
O=C(CCCCCCn1cc(Nc2ncc3ccn(Cc4ccccc4)c3n2)cn1)NO,0.051,0.0125,,
COc1cccc(Cn2ccc3cnc(Nc4cnn(CCCCCC(=O)NO)c4)nc32)c1,0.124,0.0376,,
Cc1ccc(Cn2ccc3cnc(Nc4cnn(CCCCCC(=O)NO)c4)nc32)cc1,> 0.1,,34,
O=C(CCCCCCn1cc(Nc2nccc(-c3cc(F)cc(F)c3)n2)cn1)NO,2.66,,,
O=C(CCCCCCn1cc(Nc2ncc3ccn(-c4ccccc4)c3n2)cn1)NO,0.0168,0.0131,,IC50 [4]: 0.0812 µM; IC50 (Histone deacetylase 1): 0.0521 µM; IC50 [5]: 0.0196 µM; IC50 [6]: 0.0235 µM
O=C(CCCCCCn1cc(Nc2ncc3ccn(Cc4cccc(F)c4)c3n2)cn1)NO,0.0157,0.0147,,IC50 [4]: 0.0161 µM; IC50 (Histone deacetylase 1): 0.0921 µM; IC50 (MDA-MB-468): 2.45 µM; IC50 [5]: 0.0199 µM; IC50 (BT-549): 3.02 µM; IC50 (MDA-MB-231): 3.94 µM; IC50 (CAL-51): 1.28 µM; IC50 (4T1): 3.72 µM; IC50 [6]: 0.0217 µM
Cc1ccc(Cn2ccc3cnc(Nc4cnn(CCCCCCC(=O)NO)c4)nc32)cc1,> 0.1,,38,
O=C(CCCCCn1cc(Nc2ncc3ccn(Cc4ccccc4Cl)c3n2)cn1)NO,0.0248,0.045,,
O=C(CCCCCn1cc(Nc2ncc3ccn(Cc4ccccc4F)c3n2)cn1)NO,0.01,0.0153,,IC50 [4]: 0.0184 µM; IC50 (Histone deacetylase 1): 0.145 µM; IC50 [5]: 0.0323 µM; IC50 [6]: 0.0133 µM
O=C(CCCCCCn1cc(Nc2ncc3ccn(-c4ccc(F)cc4)c3n2)cn1)NO,0.0329,0.0216,,
CS(=O)(=O)c1ccc(-n2ccc3cnc(Nc4cnn(CCCCCC(=O)NO)c4)nc32)cc1,0.0098,0.0108,,
O=C(CCCCCCn1cc(Nc2ncc3ccn(CCc4ccccc4)c3n2)cn1)NO,> 0.1,,49,
